# Measurements published in BindingDB's records for patent US10123984 (Theravance Biopharma R&D Ip, 2018).
# Target: Neprilysin (Homo sapiens, UniProt P08473)
# Experiment: Enzyme NEP Inhibition Assay
SMILES,IC50,Ki
"COCCOC(=O)C(=O)N[C@H](Cc1ccc(-c2cccc(Cl)c2)cc1)C[C@@H](O)C(=O)O [US10123984, Example 2T]",,< 0.001 µM
"CCOCCCOC(=O)C(=O)N[C@H](Cc1ccc(-c2cccc(Cl)c2)cc1)C[C@@H](O)C(=O)O [US10123984, Example 2V]",,< 0.001 µM
"O=C(O)C(=O)N[C@H](Cc1ccc(-c2cccc(Cl)c2)cc1)C[C@@H](O)C(=O)O [US10123984, Example 2A]",,< 0.001 µM
"CCOC(=O)C(=O)N[C@H](Cc1ccc(-c2cccc(Cl)c2)cc1)C[C@@H](O)C(=O)O [US10123984, Example 2F]",,< 0.001 µM
"CC(C)COC(=O)C(=O)N[C@H](Cc1ccc(-c2cccc(Cl)c2)cc1)C[C@@H](O)C(=O)O [US10123984, Example 2H]",,< 0.001 µM
"O=C(N[C@H](Cc1ccc(-c2cccc(Cl)c2)cc1)C[C@@H](O)C(=O)O)C(=O)OCCOc1ccccc1 [US10123984, Example 2U]",,< 0.001 µM

# More lines, now with the values ahead:
IC50,Ki,SMILES
0.09 µM,,"C[C@H](C[C@@H](Cc1ccc(-c2ccccc2)cc1)NC(=O)CCCC(=O)O)C(=O)O [US10123984, Compound 21e]"
0.324 µM,,"C[C@H](C[C@@H](Cc1ccc(-c2ccccc2)cc1)NC(=O)CCCCC(=O)O)C(=O)O [US10123984, Compound 21f]"
0.092 µM,,"C[C@H](CC(Cc1ccc(-c2ccccc2)cc1)NC(=O)CC(=O)O)C(=O)O (some centres undefined) [US10123984, Compound 21g]"
